Measured values reported in PMC12748989 (Nature Communications, 2025).

Key:
PBMC = details: 12.5 µM

## CC[C@H](C)[C@H](N)C(=O)N[C@@H](CC(N)=O)C(=O)N[C@@H](CC(C)C)C(=O)N[C@@H](CCCCN)C(=O)N[C@@H](C)C(=O)N[C@@H](CC(C)C)C(=O)N[C@@H](C)C(=O)N[C@@H](C)C(=O)N[C@@H](CC(C)C)C(=O)N[C@@H](C)C(=O)N[C@@H](CO)C(=O)N[C@@H](CCCCN)C(=O)N[C@H](C(=O)N[C@@H](CC(C)C)C(N)=O)[C@@H](C)CC [S11]
PBMC
  Average (percentage cell inhibition), Mastoparan PBMC: 3.714%
MDA-MB-231 cells
  Average (percentage cell inhibition), Dmastoparan MDA-MB231 12.5uM: 28.2862%

## CC[C@H](C)[C@H](N)C(=O)N[C@@H](CC(N)=O)C(=O)N[C@@H](CC(C)C)C(=O)N[C@@H](CCCCN)C(=O)N[C@@H](C)C(=O)N[C@@H](CCC(N)=O)C(=O)N[C@@H](C)C(=O)N[C@@H](C)C(=O)N[C@@H](CC(C)C)C(=O)N[C@@H](C)C(=O)N[C@@H](CCCCN)C(=O)N[C@@H](CCCCN)C(=O)N[C@H](C(=O)N[C@@H](CC(C)C)C(N)=O)[C@@H](C)CC [Q6]
PBMC
  Average (percentage cell inhibition), Mastoparan PBMC: -3.273%
MDA-MB-231 cells
  Average (percentage cell inhibition), Dmastoparan MDA-MB231 12.5uM: -10.4473%

## CC[C@H](C)[C@H](N)C(=O)N[C@@H](CC(N)=O)C(=O)N[C@@H](CC(C)C)C(=O)N[C@@H](CCCCN)C(=O)N[C@@H](C)C(=O)N[C@@H](CC(C)C)C(=O)N[C@@H](C)C(=O)N[C@@H](C)C(=O)N[C@@H](CC(C)C)C(=O)N[C@@H](CCCNC(=N)N)C(=O)N[C@@H](CCCCN)C(=O)N[C@@H](CCCCN)C(=O)N[C@H](C(=O)N[C@@H](CC(C)C)C(N)=O)[C@@H](C)CC [R10]
PBMC
  Average (percentage cell inhibition), Mastoparan PBMC: 5.821%
MDA-MB-231 cells
  Average (percentage cell inhibition), Dmastoparan MDA-MB231 12.5uM: 11.5132%

## CC[C@H](C)[C@H](N)C(=O)N[C@@H](CC(N)=O)C(=O)N[C@@H](CC(C)C)C(=O)NCC(=O)N[C@@H](C)C(=O)N[C@@H](CC(C)C)C(=O)N[C@@H](C)C(=O)N[C@@H](C)C(=O)N[C@@H](CC(C)C)C(=O)N[C@@H](C)C(=O)N[C@@H](CCCCN)C(=O)N[C@@H](CCCCN)C(=O)N[C@H](C(=O)N[C@@H](CC(C)C)C(N)=O)[C@@H](C)CC [G4]
PBMC
  Average (percentage cell inhibition), Mastoparan PBMC: 15.8704%
MDA-MB-231 cells
  Average (percentage cell inhibition), Dmastoparan MDA-MB231 12.5uM: 39.0682%

## CC[C@H](C)[C@H](N)C(=O)N[C@@H](Cc1c[nH]cn1)C(=O)N[C@@H](CC(C)C)C(=O)N[C@@H](CCCCN)C(=O)N[C@@H](C)C(=O)N[C@@H](CC(C)C)C(=O)N[C@@H](C)C(=O)N[C@@H](C)C(=O)N[C@@H](CC(C)C)C(=O)N[C@@H](C)C(=O)N[C@@H](CCCCN)C(=O)N[C@@H](CCCCN)C(=O)N[C@H](C(=O)N[C@@H](CC(C)C)C(N)=O)[C@@H](C)CC [H2]
PBMC
  Average (percentage cell inhibition), Mastoparan PBMC: 5.675%
MDA-MB-231 cells
  Average (percentage cell inhibition), Dmastoparan MDA-MB231 12.5uM: 35.1529%

## CC[C@H](C)[C@H](N)C(=O)N[C@@H](CC(N)=O)C(=O)N[C@@H](CC(C)C)C(=O)N[C@@H](Cc1c[nH]c2ccccc12)C(=O)N[C@@H](C)C(=O)N[C@@H](CC(C)C)C(=O)N[C@@H](C)C(=O)N[C@@H](C)C(=O)N[C@@H](CC(C)C)C(=O)N[C@@H](C)C(=O)N[C@@H](CCCCN)C(=O)N[C@@H](CCCCN)C(=O)N[C@H](C(=O)N[C@@H](CC(C)C)C(N)=O)[C@@H](C)CC [W4]
PBMC
  Average (percentage cell inhibition), Mastoparan PBMC: 30.4839%
MDA-MB-231 cells
  Average (percentage cell inhibition), Dmastoparan MDA-MB231 12.5uM: 50.1282%

## CC[C@H](C)[C@H](NC(=O)[C@H](CCCCN)NC(=O)[C@H](CCCCN)NC(=O)[C@H](C)NC(=O)[C@H](CC(C)C)NC(=O)[C@H](C)NC(=O)[C@H](C)NC(=O)[C@H](CC(C)C)NC(=O)[C@H](C)NC(=O)[C@H](CCCCN)NC(=O)[C@H](CC(C)C)NC(=O)[C@H](CC(N)=O)NC(=O)[C@@H](N)CC(C)C)C(=O)N[C@@H](CC(C)C)C(N)=O [L1]
PBMC
  Average (percentage cell inhibition), Mastoparan PBMC: 20.4049%
MDA-MB-231 cells
  Average (percentage cell inhibition), Dmastoparan MDA-MB231 12.5uM: 57.5292%

## CC[C@H](C)[C@H](N)C(=O)N[C@@H](CC(N)=O)C(=O)N[C@@H](CC(C)C)C(=O)N[C@@H](CCCCN)C(=O)N[C@@H](C)C(=O)N[C@@H](CO)C(=O)N[C@@H](C)C(=O)N[C@@H](C)C(=O)N[C@@H](CC(C)C)C(=O)N[C@@H](C)C(=O)N[C@@H](CCCCN)C(=O)N[C@@H](CCCCN)C(=O)N[C@H](C(=O)N[C@@H](CC(C)C)C(N)=O)[C@@H](C)CC [S6]
PBMC
  Average (percentage cell inhibition), Mastoparan PBMC: -17.608%
MDA-MB-231 cells
  Average (percentage cell inhibition), Dmastoparan MDA-MB231 12.5uM: 29.7699%

## CC[C@H](C)[C@H](N)C(=O)N[C@@H](CC(N)=O)C(=O)N[C@@H](CC(C)C)C(=O)N[C@@H](CCCCN)C(=O)N[C@@H](C)C(=O)N[C@@H](C)C(=O)N[C@@H](C)C(=O)N[C@@H](C)C(=O)N[C@@H](CC(C)C)C(=O)N[C@@H](C)C(=O)N[C@@H](CCCCN)C(=O)N[C@@H](CCCCN)C(=O)N[C@H](C(=O)N[C@@H](CC(C)C)C(N)=O)[C@@H](C)CC [A6]
PBMC
  Average (percentage cell inhibition), Mastoparan PBMC: -1.6231%
MDA-MB-231 cells
  Average (percentage cell inhibition), Dmastoparan MDA-MB231 12.5uM: 16.1268%

## CC[C@H](C)[C@H](N)C(=O)N[C@@H](CC(N)=O)C(=O)N[C@@H](CC(C)C)C(=O)N[C@@H](CCCCN)C(=O)N[C@@H](C)C(=O)N[C@@H](CC(C)C)C(=O)N[C@@H](C)C(=O)N[C@@H](C)C(=O)N[C@@H](CC(C)C)C(=O)N[C@@H](C)C(=O)N[C@H](C(=O)N[C@@H](CCCCN)C(=O)N[C@H](C(=O)N[C@@H](CC(C)C)C(N)=O)[C@@H](C)CC)[C@@H](C)O [T11]
PBMC
  Average (percentage cell inhibition), Mastoparan PBMC: 10.2886%
MDA-MB-231 cells
  Average (percentage cell inhibition), Dmastoparan MDA-MB231 12.5uM: 32.1267%

## CC[C@H](C)[C@H](N)C(=O)N[C@@H](CC(N)=O)C(=O)N[C@@H](CC(C)C)C(=O)N[C@@H](CCCCN)C(=O)N[C@@H](C)C(=O)N[C@@H](CC(C)C)C(=O)N[C@@H](C)C(=O)N[C@@H](CO)C(=O)N[C@@H](CC(C)C)C(=O)N[C@@H](C)C(=O)N[C@@H](CCCCN)C(=O)N[C@@H](CCCCN)C(=O)N[C@H](C(=O)N[C@@H](CC(C)C)C(N)=O)[C@@H](C)CC [S8]
PBMC
  Average (percentage cell inhibition), Mastoparan PBMC: -6.033%
MDA-MB-231 cells
  Average (percentage cell inhibition), Dmastoparan MDA-MB231 12.5uM: 32.8816%

## CC[C@H](C)[C@H](N)C(=O)N[C@@H](CC(N)=O)C(=O)N[C@@H](CC(C)C)C(=O)N[C@@H](CCCCN)C(=O)N[C@@H](C)C(=O)N[C@@H](CC(C)C)C(=O)N[C@@H](C)C(=O)N[C@@H](C)C(=O)N[C@@H](CO)C(=O)N[C@@H](C)C(=O)N[C@@H](CCCCN)C(=O)N[C@@H](CCCCN)C(=O)N[C@H](C(=O)N[C@@H](CC(C)C)C(N)=O)[C@@H](C)CC [S9]
PBMC
  Average (percentage cell inhibition), Mastoparan PBMC: -4.8979%
MDA-MB-231 cells
  Average (percentage cell inhibition), Dmastoparan MDA-MB231 12.5uM: 27.2293%

## CC[C@H](C)[C@H](N)C(=O)N[C@@H](CC(N)=O)C(=O)N[C@@H](CC(C)C)C(=O)N[C@@H](CCCCN)C(=O)N[C@@H](C)C(=O)N[C@@H](Cc1c[nH]c2ccccc12)C(=O)N[C@@H](C)C(=O)N[C@@H](C)C(=O)N[C@@H](CC(C)C)C(=O)N[C@@H](C)C(=O)N[C@@H](CCCCN)C(=O)N[C@@H](CCCCN)C(=O)N[C@H](C(=O)N[C@@H](CC(C)C)C(N)=O)[C@@H](C)CC [W6]
PBMC
  Average (percentage cell inhibition), Mastoparan PBMC: 18.297%
MDA-MB-231 cells
  Average (percentage cell inhibition), Dmastoparan MDA-MB231 12.5uM: 42.8966%

## CC[C@H](C)[C@H](N)C(=O)N[C@@H](CC(N)=O)C(=O)N[C@@H](CC(C)C)C(=O)N[C@@H](CCCCN)C(=O)N[C@@H](C)C(=O)N[C@@H](CC(C)C)C(=O)N[C@@H](C)C(=O)N[C@@H](C)C(=O)N[C@@H](CC(C)C)C(=O)N[C@@H](C)C(=O)N[C@@H](CCCCN)C(=O)N[C@@H](CCC(=O)O)C(=O)N[C@H](C(=O)N[C@@H](CC(C)C)C(N)=O)[C@@H](C)CC [E12]
PBMC
  Average (percentage cell inhibition), Mastoparan PBMC: 4.97%
MDA-MB-231 cells
  Average (percentage cell inhibition), Dmastoparan MDA-MB231 12.5uM: 21.4723%

## CC[C@H](C)[C@H](N)C(=O)N[C@@H](CC(N)=O)C(=O)N[C@@H](CC(C)C)C(=O)N[C@@H](CCCCN)C(=O)N[C@@H](C)C(=O)N[C@@H](CC(C)C)C(=O)N[C@@H](C)C(=O)N[C@@H](C)C(=O)N[C@@H](CC(C)C)C(=O)N[C@@H](C)C(=O)N[C@@H](CCCCN)C(=O)N[C@@H](CCCCN)C(=O)N1CCC[C@H]1C(=O)N[C@@H](CC(C)C)C(N)=O [P13]
PBMC
  Average (percentage cell inhibition), Mastoparan PBMC: -11.6187%
MDA-MB-231 cells
  Average (percentage cell inhibition), Dmastoparan MDA-MB231 12.5uM: -16.5854%

## CC[C@H](C)[C@H](N)C(=O)N[C@@H](CC(N)=O)C(=O)N[C@@H](CC(C)C)C(=O)N[C@@H](CCCCN)C(=O)N[C@@H](C)C(=O)N[C@@H](CC(C)C)C(=O)N[C@@H](CCCNC(=N)N)C(=O)N[C@@H](C)C(=O)N[C@@H](CC(C)C)C(=O)N[C@@H](C)C(=O)N[C@@H](CCCCN)C(=O)N[C@@H](CCCCN)C(=O)N[C@H](C(=O)N[C@@H](CC(C)C)C(N)=O)[C@@H](C)CC [R7]
PBMC
  Average (percentage cell inhibition), Mastoparan PBMC: 3.182%
MDA-MB-231 cells
  Average (percentage cell inhibition), Dmastoparan MDA-MB231 12.5uM: 35.9182%

## CC[C@H](C)[C@H](N)C(=O)N[C@@H](CC(N)=O)C(=O)N[C@@H](CC(C)C)C(=O)N[C@@H](CCCCN)C(=O)N[C@@H](C)C(=O)N[C@@H](CC(C)C)C(=O)N[C@@H](C)C(=O)N[C@@H](C)C(=O)N[C@@H](CC(C)C)C(=O)N[C@@H](C)C(=O)N[C@@H](CCCCN)C(=O)N[C@@H](CCCCN)C(=O)N[C@H](C(=O)N[C@@H](CCCCN)C(N)=O)[C@@H](C)CC [K14]
PBMC
  Average (percentage cell inhibition), Mastoparan PBMC: 6.4564%
MDA-MB-231 cells
  Average (percentage cell inhibition), Dmastoparan MDA-MB231 12.5uM: 21.2164%

## CC[C@H](C)[C@H](N)C(=O)N[C@@H](CC(N)=O)C(=O)N[C@@H](CC(C)C)C(=O)N[C@@H](CCCCN)C(=O)N[C@@H](C)C(=O)N[C@@H](CC(C)C)C(=O)N[C@@H](C)C(=O)N[C@@H](CCCCN)C(=O)N[C@@H](CC(C)C)C(=O)N[C@@H](C)C(=O)N[C@@H](CCCCN)C(=O)N[C@@H](CCCCN)C(=O)N[C@H](C(=O)N[C@@H](CC(C)C)C(N)=O)[C@@H](C)CC [K8]
PBMC
  Average (percentage cell inhibition), Mastoparan PBMC: 13.8127%
MDA-MB-231 cells
  Average (percentage cell inhibition), Dmastoparan MDA-MB231 12.5uM: 44.6441%

## CC[C@H](C)[C@H](NC(=O)[C@H](CCCCN)NC(=O)[C@H](CCCCN)NC(=O)[C@H](C)NC(=O)[C@H](CC(C)C)NC(=O)[C@H](C)NC(=O)[C@H](C)NC(=O)[C@H](CC(C)C)NC(=O)[C@H](C)NC(=O)[C@H](CCCCN)NC(=O)[C@H](CC(C)C)NC(=O)[C@H](CC(N)=O)NC(=O)[C@@H](N)CCCCN)C(=O)N[C@@H](CC(C)C)C(N)=O [K1]
PBMC
  Average (percentage cell inhibition), Mastoparan PBMC: 1.227%
MDA-MB-231 cells
  Average (percentage cell inhibition), Dmastoparan MDA-MB231 12.5uM: 35.9182%
